Measurements from patent publication US6673840B1, “Use of lipoxygenase metabolite of arachidonic acid and its derivatives in capsaicin-channel agonist” (priority 1998, dated 2004).
Entries after “also recorded” stand apart in the source; their conditions may differ. Blank lines part the entries; values can stand above or below the compound they belong to.

Experiments:
CAP channel [1] = target: T1, CAP channel (Rattus norvegicus, UniProt O35433); experiment: single channel current recording with patch clamp technique, inside-out membrane patches of cultured sensory neurons; assay type: cell-based; conditions: for generation of single channel currents (activation of CAP channel): applied to intracellular side of membrane patch, CAP 0.5 μM, 12-HPETE 2 μM; for Hill coefficient: concentration-response curve of channel activation; for amplitude of the single channel currents: membrane potential of 60 mV; for relative agonistic potency (Po as percentage of Po at 0.5 μM CAP): metabolites at 10~20 μM
T1 construct: administered at an amount of 10˜20 μM to the membrane patches of cultured sensory neurons; endogenous in cells; host or cells: cultured sensory neurons (inside-out membrane patches)
Procedure: In the present invention, use was made of a single channel recording method with the aid of a patch clamp technique (Hamill et al., Pfl gers Arch 391:85-100, 1981) in order to know whether lipoxygenase metabolites activate CAP channels or receptors or not. […] Because the tests are performed in isolated membrane patches without the mediation of intracellular second messengers, lipoxygenase metabolites are believed to exert a direct action on the CAP channel.
An examination was made on the efficiency with which the various lipoxygenase metabolites activate CAP channels. To this end, a patch clamp technique was used to record the single channel current generated in the CAP channel to which various lipoxygenase metabolites were applied to measure the open probability (Po) of the CAP channel. To compare the relative potency of each metabolite, the effects of the lipoxygenase metabolites on CAP channels were measured with a reference to 0.5 μM CAP.
A single channel current recording method using a patch clamp technique (Hamill et al., supra; Oh et al., 1996a) was used to know whether the lipoxygenase metabolites directly activate the CAP channel.
Because the binding site of CAP was located on the intracellular side of the channel (Oh et al., 1996b), the metabolites were applied to the intracellular sides of cell membrane patches.
In order to compare the agonistic potencies of the various metabolites synthesized by the action of various lipoxygenases, one patch was administered with 0.5 μM of CAP and then, with various lipoxygenase metabolites. At each experiment, the open probabilities (Po) of the channel attributable to the metabolites were recorded and calculated as a percentage to the open probability obtained at 0.5 μM CAP.
All of the lipoxygenase metabolites tested were administered at an amount of 10˜20 μM to the membrane patches of cultured sensory neurons. The relative potency of the metabolites in activating the channel was depicted in FIG. 7. As apparent from this histogram, almost all of the lipoxygenase metabolites, if different in agonistic potency, activate the CAP channel.
12-HPETE was administered at various concentrations from 0.25 to 20 μM to the cell membrane patches of sensory nerve cells, in order to plot a concentration-response curve. As a result, FIG. 8a was obtained. […] Returning now to FIG. 8a, the channel activation currents obtained at each 12-HPETE concentration were calculated as relative degrees to the channel activation current obtained at 20 μM of 12-HEPETE. The relative channel degrees were plotted against the concentrations of […] 12-HPETE and the resulting plot followed the Hill equation.

[2] = test system: cultured sensory nerve cells; experiment: whole-cell currents in cultured sensory nerve cells in response to BK; assay type: cell-based; conditions: CZP 10 μM; 5 μM of BK
Text: When taking various experimental results previously obtained into account, it was inferred that BK has a possibility to open CAP channels through the arachidonic acid-lipoxygenase pathway. To confirm this inference, an examination was made regarding whether the currents generated in cultured sensory nerve sells in response to BK were diminished by CZP or other lipoxygenase inhibitors. If BK made CAP channel open via the arachidonic acid-lipoxygenase pathway, the current response to BK must be reduced by CZP. However, rarely did the cultured cells respond to BK.

[3] = test system: sensory nerve fibers (c-fibers) of the skin; experiment: skin-nerve preparation, action potentials of cutaneous pain nerve c-fibers; set-up: species or system rats
Procedure: To recognize whether the excitation of BK on nerve cells is accomplished via the arachidonic acid-lipoxygenase-CAP pathway, in vivo, a measurement was made on the action potentials in the sensory nerve fibers of the rats, as shown in FIGS. 13a and 13b. particularly, pain nerves which exist in the skin were isolated, together with a overlapping area of the skin, and the action potentials were measured from the nerve filaments using skin-nerve preparation (Reeh, 1998; Steen et al., 1992, 1995) as schematically illustrated in FIG. 13a. While unit action potentials measured at the sensory nerve fibers isolated from the skin, frequencies of the action potentials induced by the administration of BK were recorded. An increase in frequency of the action potentials means excitation of the sensory nerves.
The transmission speed of nerve signals were measured and only c-fibers (non-myelinated sensory nerve fibers) were used in the BK response experiment. The reason why c-fibers are used only is that they consist mainly of pain nerve cells (Willis and Coggeshall, 1991; Yaksh, 1986).
With reference to FIG. 13b, there are illustrated the action potential behaviors of the cutaneous pain nerve in response to agonist and antagonist samples. […] In order to recognize whether the nerve excitation of BK was attributed to the opening of CAP channels, CZP was administered at a dose of 10 μM, together with BK, to the skin. […] An experiment in which BK was administered alone or in combination with CZP to the skin, was repeated 20 times with the aim of testing the influence which BK and a combination of BK and CZP had on the activation of nerve cells, and the results are summarized as shown in FIG. 13c.
When the sensory nerve fibers were excited in response to BK, inhibitors against the enzymes required for the arachidonic acid-lipoxygenase-CAP receptor pathway were used in order to identify whether the response passed through the pathway. In the histogram of FIG. 14, the bar length of each inhibitor represents % activation relative to the activation effect obtained when BK was used alone in absence of any inhibitor. For example, CZP, if added along with BK, suppressed the activation response to BK by approximately […].

CAP channel [4] = target: T1, CAP channel; experiment: single channel current recording with patch clamp technique, inside-out membrane patches of cultured sensory neurons; assay type: cell-based

T1 sequence (O35433 whole entry): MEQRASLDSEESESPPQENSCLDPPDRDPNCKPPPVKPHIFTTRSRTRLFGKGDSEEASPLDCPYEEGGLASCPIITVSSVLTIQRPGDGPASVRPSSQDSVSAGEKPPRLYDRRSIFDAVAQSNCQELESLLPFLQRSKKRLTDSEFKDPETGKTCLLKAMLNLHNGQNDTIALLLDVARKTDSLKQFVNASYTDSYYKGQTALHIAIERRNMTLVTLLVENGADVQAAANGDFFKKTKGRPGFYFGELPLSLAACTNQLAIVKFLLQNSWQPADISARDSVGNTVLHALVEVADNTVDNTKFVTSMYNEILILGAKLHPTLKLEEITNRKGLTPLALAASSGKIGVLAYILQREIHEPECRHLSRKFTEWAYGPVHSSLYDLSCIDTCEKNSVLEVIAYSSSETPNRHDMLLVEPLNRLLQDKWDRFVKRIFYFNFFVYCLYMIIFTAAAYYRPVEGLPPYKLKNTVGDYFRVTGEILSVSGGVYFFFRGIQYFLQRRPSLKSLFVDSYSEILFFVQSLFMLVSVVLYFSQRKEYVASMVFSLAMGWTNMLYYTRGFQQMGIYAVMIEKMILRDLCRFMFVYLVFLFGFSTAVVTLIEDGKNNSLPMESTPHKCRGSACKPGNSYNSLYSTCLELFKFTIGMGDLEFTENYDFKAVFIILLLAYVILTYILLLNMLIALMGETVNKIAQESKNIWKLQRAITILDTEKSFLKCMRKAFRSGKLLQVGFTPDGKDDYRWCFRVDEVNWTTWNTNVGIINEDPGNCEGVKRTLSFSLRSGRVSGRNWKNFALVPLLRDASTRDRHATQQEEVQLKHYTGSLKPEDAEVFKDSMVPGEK

generation of single channel currents (activation of CAP channel) (CAP channel [1]): no channel currents were generated
SMILES: CCCCC[C@H](O)/C=C/[C@H]1[C@H](O)CC(=O)[C@@H]1C/C=C\CCCC(=O)O [PGE2, prostaglandin E2]

generation of single channel currents (activation of CAP channel) (CAP channel [1]): no channel currents were generated
SMILES: CCCCC[C@H](O)/C=C/[C@@H]1[C@H]2C/C(=C/CCCC(=O)O)O[C@H]2C[C@H]1O [PGI2]

generation of single channel currents (activation of CAP channel) (CAP channel [1]): no channel currents were generated
SMILES: CCCCC[C@H](O)/C=C/[C@H]1C(=O)C[C@H](O)[C@@H]1C/C=C\CCCC(=O)O [PGD2]

Po channel open probability (CAP channel [1]; co-existence of 10 μM of CZP and 10 μM of 12-HPETE): 0.001±0.000002
SMILES: Oc1cc2c(cc1O)CN(C(=S)NCCc1ccc(Cl)cc1)CCC2 [CZP, capsazepine]
effect on current generated by BK [2]: reduced the current
effect on response of skin nerve to BK ([3]; CZP 10 μM together with BK): Great suppression
effect on single channel currents activated by 12-HPETE (CAP channel [1]; 10 μM of CZP present): single channel currents were not observed

Hill coefficient (CAP channel [1]): 2.4
amplitude of the single channel currents (CAP channel [1]): 2.72±0.06 pA
SMILES: COc1cc(CNC(=O)CCCC/C=C/C(C)C)ccc1O [CAP, capsaicin]
action potentials of the nerve fibers (excitation) ([3]; administered to skin patch, BK 1 μM): largely increased action potentials
generation of single channel currents (activation of CAP channel) (CAP channel [1]): single channel current which was greatly generated

SMILES: COc1ccc2c(c1)c(CC(=O)O)c(C)n2C(=O)c1ccc(Cl)cc1 [INDO, indomethacin]
effect on the BK response ([3]; 2 μM indomethacin): failed to inhibit the BK response

experiments in which channel currents were weakly induced (CAP channel [4]; arachidonic acid 10 to 50 μM): 54%
experiments in which the CAP channels were not activated (CAP channel [4]; arachidonic acid 10 to 50 μM): approximately 46%
trials in which the CAP channels were not activated (CAP channel [4]; arachidonic acid 10 to 50 μM, of 69 trials): 32 trials
SMILES: CCCCC/C=C\C/C=C\C/C=C\C/C=C\CCCC(=O)O [arachidonic acid]

SMILES: CCCCC/C=C\CC(/C=C/C=C\C/C=C\CCCC(=O)O)OO (centres unmarked) [12-HPETE, 12-hydroperoxyeicosatetraenoic acid]
patches in which activation of CAP channels was detected (CAP channel [1]; 12-HPETE 2-20 μM, of the 97 patch samples tested): 88 patches
Po channel open probability (CAP channel [1]; 12-HPETE alone, increased from 0.0, n=4): 0.019±0.0002
reversal potential (CAP channel [1]; bi-ionic system 140 mM Na+ / 140 mM K+, 2~10 μM 12-HPETE): −1.71±0.49 mV
permeability ratio of K+/Na+ (PK/PNa) (CAP channel [1]; calculated from bi-ionic system experiment): 1.1
Hill coefficient (CAP channel [1]): 2.4
amplitude of the single channel currents (CAP channel [1]): 2.68±0.012 pA
relative agonistic potency (Po as percentage of Po at 0.5 μM CAP) (CAP channel [1]): most potent endogenous agonist; also recorded: highest agonistic potency

relative agonistic potency (Po as percentage of Po at 0.5 μM CAP) (CAP channel [1]): poor in the activation potency
SMILES: CCCCC/C=C\C[C@@H](O)/C=C/C=C/C=C\[C@@H](O)CCCC(=O)O [leukotriene B4]

SMILES: CCN(CC)CCCC(C)Nc1c2ccc(Cl)cc2nc2ccc(OC)cc12 (centres unmarked) [QN, Quinacrine]
suppressive effect on the activation response to BK ([3]; relative to BK alone): 70%

SMILES: CC(Cc1ccc(O)c(O)c1)C(C)Cc1ccc(O)c(O)c1 (centres unmarked) [NDGA, nordihydroguaiaretic acid]
effect on single channel current generated by arachidonic acid (CAP channel [4]; NDGA administered together with arachidonic acid): reversibly controlled depending on the presence or absence of NDGA
lowering of the activation of BK ([3]; 50 μM of NDGA, relative to BK alone): 70%
